Measurements reported in PubChem BioAssay AID1963841 (Molecular Pharmacology Branch, DTP, NCI, 2024).

Test system: 439559-082-T-J2-PDC spheroid viability
Experiment: Anticancer human tumor 439559-082-T-J2-PDC patient-derived colon adenocarcinoma cell line growth inhibition [POLQ]
Settings: spheroids with HUVEC and MSC; for IC50: curve of first compound; for viability, T/C: stronger effect = lower value
Method in brief: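 Three-cell-type spheroids modelling solid tumor plus stroma served as the readout system; POL inhibitors were tested individually and in combination, concentration ranges set by clinical Cmax where known.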

[1] = second compound 0.0316 µM, first compound 0.00316 µM
[2] = second compound 0.0316 µM, first compound 0.01 µM
[3] = second compound 0.0316 µM, first compound 0.0316 µM
[4] = second compound 0.0316 µM, first compound 0.1 µM
[5] = second compound 0.0316 µM, first compound 0.316 µM
[6] = second compound 0.0316 µM, first compound 1 µM
[7] = second compound 0.1 µM, first compound 0.00316 µM
[8] = second compound 0.1 µM, first compound 0.01 µM
[9] = second compound 0.1 µM, first compound 0.0316 µM
[10] = second compound 0.1 µM, first compound 0.1 µM
[11] = second compound 0.1 µM, first compound 0.316 µM
[12] = second compound 0.1 µM, first compound 1 µM
[13] = second compound 0.316 µM, first compound 0.00316 µM
[14] = second compound 0.316 µM, first compound 0.01 µM
[15] = second compound 0.316 µM, first compound 0.0316 µM
[16] = second compound 0.316 µM, first compound 0.1 µM
[17] = second compound 0.316 µM, first compound 0.316 µM
[18] = second compound 0.316 µM, first compound 1 µM
[19] = second compound 1 µM, first compound 0.00316 µM
[20] = second compound 1 µM, first compound 0.01 µM
[21] = second compound 1 µM, first compound 0.0316 µM
[22] = second compound 1 µM, first compound 0.1 µM
[23] = second compound 1 µM, first compound 0.316 µM
[24] = second compound 1 µM, first compound 1 µM
[25] = second compound 3.16 µM, first compound 0.00316 µM
[26] = second compound 3.16 µM, first compound 0.01 µM
[27] = second compound 3.16 µM, first compound 0.0316 µM
[28] = second compound 3.16 µM, first compound 0.1 µM
[29] = second compound 3.16 µM, first compound 0.316 µM
[30] = second compound 3.16 µM, first compound 1 µM
[31] = second compound 10 µM, first compound 0.00316 µM
[32] = second compound 10 µM, first compound 0.01 µM
[33] = second compound 10 µM, first compound 0.0316 µM
[34] = second compound 10 µM, first compound 0.1 µM
[35] = second compound 10 µM, first compound 0.316 µM
[36] = second compound 10 µM, first compound 1 µM
[37] = second compound 0.0316 µM, first compound 3.16 µM
[38] = second compound 0.0316 µM, first compound 10 µM
[39] = second compound 0.1 µM, first compound 3.16 µM
[40] = second compound 0.1 µM, first compound 10 µM
[41] = second compound 0.316 µM, first compound 3.16 µM
[42] = second compound 0.316 µM, first compound 10 µM
[43] = second compound 1 µM, first compound 3.16 µM
[44] = second compound 1 µM, first compound 10 µM
[45] = second compound 3.16 µM, first compound 3.16 µM
[46] = second compound 3.16 µM, first compound 10 µM
[47] = second compound 10 µM, first compound 3.16 µM
[48] = second compound 10 µM, first compound 10 µM
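Further: spheroids exposed to compounds for seven days before readout.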
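Wherever viability, T/C is given: 100% = DMSO vehicle control viability.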

C=CCn1c(=O)c2cnc(Nc3ccc(N4CCN(C)CC4)cc3)nc2n1-c1cccc(C(C)(C)O)n1 + Cc1cccc(N(C)C(=O)C2C(O)CCN2c2nc(C)cc(C(F)(F)F)c2C#N)c1
IC50 (second compound 0.0316 µM): > 1000 nM
IC50 (second compound 0.1 µM): > 1000 nM
IC50 (second compound 0.316 µM): > 1000 nM
IC50 (second compound 1 µM): > 1000 nM
IC50 (second compound 3.16 µM): > 1000 nM
IC50 (second compound 10 µM): > 1000 nM
viability, T/C [1]: 104%
viability, T/C [2]: 96.8%
viability, T/C [3]: 93.3%
viability, T/C [4]: 92.1%
viability, T/C [5]: 83.7%
viability, T/C [6]: 78.9%
viability, T/C [7]: 98%
viability, T/C [8]: 103%
viability, T/C [9]: 107%
viability, T/C [10]: 88.3%
viability, T/C [11]: 93.1%
viability, T/C [12]: 84.1%
viability, T/C [13]: 104%
viability, T/C [14]: 104%
viability, T/C [15]: 85.8%
viability, T/C [16]: 95.3%
viability, T/C [17]: 100%
viability, T/C [18]: 71%
viability, T/C [19]: 86.3%
viability, T/C [20]: 99.8%
viability, T/C [21]: 102%
viability, T/C [22]: 102%
viability, T/C [23]: 93.4%
viability, T/C [24]: 75.3%
viability, T/C [25]: 94.6%
viability, T/C [26]: 105%
viability, T/C [27]: 91.7%
viability, T/C [28]: 95.4%
viability, T/C [29]: 96.5%
viability, T/C [30]: 76.8%
viability, T/C [31]: 100%
viability, T/C [32]: 90.6%
viability, T/C [33]: 99.3%
viability, T/C [34]: 97.8%
viability, T/C [35]: 93.5%
viability, T/C [36]: 74.3%

CCCS(=O)(=O)Nc1ccc(F)c(C(=O)c2c[nH]c3ncc(-c4ccc(Cl)cc4)cc23)c1F + Cc1cccc(N(C)C(=O)C2C(O)CCN2c2nc(C)cc(C(F)(F)F)c2C#N)c1
IC50 (second compound 0.0316 µM): > 10000 nM
IC50 (second compound 0.1 µM): > 10000 nM
IC50 (second compound 0.316 µM): > 10000 nM
IC50 (second compound 1 µM): > 10000 nM
IC50 (second compound 3.16 µM): > 10000 nM
IC50 (second compound 10 µM): > 10000 nM
viability, T/C [3]: 103%
viability, T/C [4]: 106%
viability, T/C [5]: 92.1%
viability, T/C [6]: 97%
viability, T/C [37]: 94.8%
viability, T/C [38]: 80.3%
viability, T/C [9]: 100%
viability, T/C [10]: 96.1%
viability, T/C [11]: 91.5%
viability, T/C [12]: 94.4%
viability, T/C [39]: 113%
viability, T/C [40]: 75.8%
viability, T/C [15]: 93.5%
viability, T/C [16]: 94.4%
viability, T/C [17]: 106%
viability, T/C [18]: 86%
viability, T/C [41]: 99.4%
viability, T/C [42]: 79.5%
viability, T/C [21]: 96.2%
viability, T/C [22]: 103%
viability, T/C [23]: 92.8%
viability, T/C [24]: 95.3%
viability, T/C [43]: 91.5%
viability, T/C [44]: 78.3%
viability, T/C [27]: 99%
viability, T/C [28]: 90.2%
viability, T/C [29]: 94.9%
viability, T/C [30]: 102%
viability, T/C [45]: 102%
viability, T/C [46]: 74.4%
viability, T/C [33]: 101%
viability, T/C [34]: 96.3%
viability, T/C [35]: 82.8%
viability, T/C [36]: 90.2%
viability, T/C [47]: 90.2%
viability, T/C [48]: 70.5%

CNCc1ccc(-c2[nH]c3cc(F)cc4c3c2CCNC4=O)cc1 + Cc1cccc(N(C)C(=O)C2C(O)CCN2c2nc(C)cc(C(F)(F)F)c2C#N)c1
IC50 (second compound 0.0316 µM): > 10000 nM
IC50 (second compound 0.1 µM): > 10000 nM
IC50 (second compound 0.316 µM): > 10000 nM
IC50 (second compound 1 µM): > 10000 nM
IC50 (second compound 3.16 µM): > 10000 nM
IC50 (second compound 10 µM): > 10000 nM
viability, T/C [3]: 94.8%
viability, T/C [4]: 108%
viability, T/C [5]: 99.3%
viability, T/C [6]: 96.5%
viability, T/C [37]: 102%
viability, T/C [38]: 110%
viability, T/C [9]: 103%
viability, T/C [10]: 105%
viability, T/C [11]: 108%
viability, T/C [12]: 95.8%
viability, T/C [39]: 101%
viability, T/C [40]: 96.8%
viability, T/C [15]: 105%
viability, T/C [16]: 105%
viability, T/C [17]: 98.3%
viability, T/C [18]: 114%
viability, T/C [41]: 102%
viability, T/C [42]: 102%
viability, T/C [21]: 99.3%
viability, T/C [22]: 92.6%
viability, T/C [23]: 92.2%
viability, T/C [24]: 106%
viability, T/C [43]: 95.7%
viability, T/C [44]: 106%
viability, T/C [27]: 105%
viability, T/C [28]: 98.3%
viability, T/C [29]: 96.9%
viability, T/C [30]: 99.1%
viability, T/C [45]: 102%
viability, T/C [46]: 99.5%
viability, T/C [33]: 88.4%
viability, T/C [34]: 92.8%
viability, T/C [35]: 93.5%
viability, T/C [36]: 91.1%
viability, T/C [47]: 97.2%
viability, T/C [48]: 100%

COc1cccc(OCCCN)c1-c1cc(Nc2cnc(C#N)cn2)n[nH]1 + Cc1cccc(N(C)C(=O)C2C(O)CCN2c2nc(C)cc(C(F)(F)F)c2C#N)c1
IC50 (second compound 0.0316 µM): 274 nM
IC50 (second compound 0.1 µM): 319 nM
IC50 (second compound 0.316 µM): 299 nM
IC50 (second compound 1 µM): 398 nM
IC50 (second compound 3.16 µM): 291 nM
IC50 (second compound 10 µM): 150 nM
viability, T/C [1]: 99.3%
viability, T/C [2]: 99.7%
viability, T/C [3]: 71%
viability, T/C [4]: 77.9%
viability, T/C [5]: 44.8%
viability, T/C [6]: 18.5%
viability, T/C [7]: 100%
viability, T/C [8]: 74.7%
viability, T/C [9]: 71.1%
viability, T/C [10]: 78.1%
viability, T/C [11]: 49.5%
viability, T/C [12]: 19.9%
viability, T/C [13]: 104%
viability, T/C [14]: 83.8%
viability, T/C [15]: 84.8%
viability, T/C [16]: 68.7%
viability, T/C [17]: 51%
viability, T/C [18]: 19.8%
viability, T/C [19]: 110%
viability, T/C [20]: 94.2%
viability, T/C [21]: 82.5%
viability, T/C [22]: 77.5%
viability, T/C [23]: 64.2%
viability, T/C [24]: 20.9%
viability, T/C [25]: 87.6%
viability, T/C [26]: 102%
viability, T/C [27]: 81.7%
viability, T/C [28]: 74.9%
viability, T/C [29]: 48.1%
viability, T/C [30]: 19.4%
viability, T/C [31]: 101%
viability, T/C [32]: 86.9%
viability, T/C [33]: 94.5%
viability, T/C [34]: 63.2%
viability, T/C [35]: 25.1%
viability, T/C [36]: 16.2%

Cn1ncnc1[C@H]1c2n[nH]c(=O)c3cc(F)cc(c23)N[C@@H]1c1ccc(F)cc1 + Cc1cccc(N(C)C(=O)C2C(O)CCN2c2nc(C)cc(C(F)(F)F)c2C#N)c1
IC50 (second compound 0.0316 µM): > 100 nM
IC50 (second compound 0.1 µM): > 100 nM
IC50 (second compound 0.316 µM): > 100 nM
IC50 (second compound 1 µM): > 100 nM
IC50 (second compound 3.16 µM): > 100 nM
IC50 (second compound 10 µM): > 100 nM
viability, T/C (second compound 0.0316 µM, first compound 0.000316 µM): 97.7%
viability, T/C (second compound 0.0316 µM, first compound 0.001 µM): 103%
viability, T/C [1]: 97.5%
viability, T/C [2]: 99.2%
viability, T/C [3]: 90.8%
viability, T/C [4]: 93.4%
viability, T/C (second compound 0.1 µM, first compound 0.000316 µM): 108%
viability, T/C (second compound 0.1 µM, first compound 0.001 µM): 108%
viability, T/C [7]: 96%
viability, T/C [8]: 102%
viability, T/C [9]: 94.5%
viability, T/C [10]: 86.3%
viability, T/C (second compound 0.316 µM, first compound 0.000316 µM): 105%
viability, T/C (second compound 0.316 µM, first compound 0.001 µM): 107%
viability, T/C [13]: 99.6%
viability, T/C [14]: 99.5%
viability, T/C [15]: 92.7%
viability, T/C [16]: 93.4%
viability, T/C (second compound 1 µM, first compound 0.000316 µM): 110%
viability, T/C (second compound 1 µM, first compound 0.001 µM): 96.5%
viability, T/C [19]: 93.1%
viability, T/C [20]: 92.8%
viability, T/C [21]: 99.9%
viability, T/C [22]: 96.8%
viability, T/C (second compound 3.16 µM, first compound 0.000316 µM): 93%
viability, T/C (second compound 3.16 µM, first compound 0.001 µM): 103%
viability, T/C [25]: 103%
viability, T/C [26]: 91.9%
viability, T/C [27]: 101%
viability, T/C [28]: 87.5%
viability, T/C (second compound 10 µM, first compound 0.000316 µM): 95.7%
viability, T/C (second compound 10 µM, first compound 0.001 µM): 98.1%
viability, T/C [31]: 95.4%
viability, T/C [32]: 86.2%
viability, T/C [33]: 91.5%
viability, T/C [34]: 85.2%
